Assay results: publication PMC4805204, “Robust Stimulation of W1282X-CFTR Channel Activity by a Combination of Allosteric Modulators” (PLoS ONE, 2016)

Molecular target: T1, Δ1198-CFTR (Homo sapiens, UniProt P13569)
T1 construct: NBD2 deletion construct; V1198 replaced with a termination codon
Test: inside-out macropatch clamp of HEK-293T cells, […] curcumin, order of addition with VX-770
Type: cell-based

T1 sequence (P13569 1-1197, stated change not applied): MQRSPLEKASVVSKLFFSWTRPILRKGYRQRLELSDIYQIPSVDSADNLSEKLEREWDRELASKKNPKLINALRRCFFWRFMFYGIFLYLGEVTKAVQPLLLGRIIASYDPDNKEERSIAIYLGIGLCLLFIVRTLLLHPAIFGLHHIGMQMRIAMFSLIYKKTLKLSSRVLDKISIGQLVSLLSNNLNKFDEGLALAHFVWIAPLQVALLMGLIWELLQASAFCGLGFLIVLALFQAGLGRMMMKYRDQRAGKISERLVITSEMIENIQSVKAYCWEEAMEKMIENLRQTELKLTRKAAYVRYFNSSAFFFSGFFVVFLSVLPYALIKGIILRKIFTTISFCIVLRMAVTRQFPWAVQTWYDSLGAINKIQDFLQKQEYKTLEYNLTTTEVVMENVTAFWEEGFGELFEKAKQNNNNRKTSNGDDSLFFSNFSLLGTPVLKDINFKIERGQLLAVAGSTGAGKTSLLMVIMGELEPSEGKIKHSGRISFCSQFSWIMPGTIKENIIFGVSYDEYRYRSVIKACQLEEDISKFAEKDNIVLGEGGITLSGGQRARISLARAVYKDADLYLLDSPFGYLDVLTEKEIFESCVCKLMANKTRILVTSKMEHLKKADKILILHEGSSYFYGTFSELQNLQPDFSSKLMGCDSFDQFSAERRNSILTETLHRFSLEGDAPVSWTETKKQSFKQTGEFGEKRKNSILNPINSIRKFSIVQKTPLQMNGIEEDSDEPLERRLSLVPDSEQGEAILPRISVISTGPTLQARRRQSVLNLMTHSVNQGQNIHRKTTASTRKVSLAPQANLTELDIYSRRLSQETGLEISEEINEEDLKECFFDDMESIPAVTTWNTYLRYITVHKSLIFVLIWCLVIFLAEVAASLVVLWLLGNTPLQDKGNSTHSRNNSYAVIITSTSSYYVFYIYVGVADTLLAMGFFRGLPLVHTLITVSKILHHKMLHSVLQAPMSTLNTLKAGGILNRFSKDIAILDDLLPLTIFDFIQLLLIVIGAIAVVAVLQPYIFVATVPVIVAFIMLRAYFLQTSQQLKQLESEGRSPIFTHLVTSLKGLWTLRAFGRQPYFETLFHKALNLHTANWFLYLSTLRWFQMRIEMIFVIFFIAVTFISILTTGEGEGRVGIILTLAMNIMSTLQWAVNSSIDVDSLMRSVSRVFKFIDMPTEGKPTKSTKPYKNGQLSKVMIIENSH

COc1cc(/C=C/C(=O)CC(=O)/C=C/c2ccc(O)c(OC)c2)ccc1O [curcumin]
inside-out macropatch clamp of HEK-293T cells, 30 uM curcumin, order of addition: Mean percent stimulation of W1282X-CFTR or Δ1198-CFTR current by each compound alone
